Experimental data published in patent US4218456A, “1-(4-Fluorophenyl)-4-(1,2,3,6-tetrahydro-4-phenoxy-1-pyridinyl)-butanones” (Warner-Lambert Company, priority 1978, dated 1980).

System: dopamine receptor binding sites
Test: 3H-Haloperidol Receptor Binding Assay (HRBA)
Details: at 10^-8 mol/L concentration in vitro
Source text: As with other known antipsychotics, the compounds of formula I readily displace ^3 H-haloperidol from dopamine receptor binding sites in the ^3 H-Haloperidol Receptor Binding Assay (HRBA). […] The HRBA screen is described by I. Creese, D. R. Burt and S. H. Snyder, Science, 192, 481 (1976) and P. Seeman, T. Lee, M. Chan-Wong and K. Wong, Nature, 261, 717 (1976).

- inhibition of 3H-haloperidol: 87%
Structure (SMILES): O=C(CCCN1CC=C(Oc2ccc(F)cc2)CC1)c1ccc(F)cc1 [Example 9, 4-[4-(4-Fluorophenoxy)-1,2,3,6-tetrahydro-1-pyridinyl]-1-(4-fluorophenyl)-1-butanone(Z)-2-Butenedioate]
